Like-named read-outs stand apart in the source and are kept apart here.
Target: T1, ClC-7 (Rattus norvegicus, UniProt P51799)
T1 construct: gene Clcn7; wt rat ClC-7 with C-terminal EGFP fusion; with Ostm1 (mouse)
T1 sequence (P51799 1-803): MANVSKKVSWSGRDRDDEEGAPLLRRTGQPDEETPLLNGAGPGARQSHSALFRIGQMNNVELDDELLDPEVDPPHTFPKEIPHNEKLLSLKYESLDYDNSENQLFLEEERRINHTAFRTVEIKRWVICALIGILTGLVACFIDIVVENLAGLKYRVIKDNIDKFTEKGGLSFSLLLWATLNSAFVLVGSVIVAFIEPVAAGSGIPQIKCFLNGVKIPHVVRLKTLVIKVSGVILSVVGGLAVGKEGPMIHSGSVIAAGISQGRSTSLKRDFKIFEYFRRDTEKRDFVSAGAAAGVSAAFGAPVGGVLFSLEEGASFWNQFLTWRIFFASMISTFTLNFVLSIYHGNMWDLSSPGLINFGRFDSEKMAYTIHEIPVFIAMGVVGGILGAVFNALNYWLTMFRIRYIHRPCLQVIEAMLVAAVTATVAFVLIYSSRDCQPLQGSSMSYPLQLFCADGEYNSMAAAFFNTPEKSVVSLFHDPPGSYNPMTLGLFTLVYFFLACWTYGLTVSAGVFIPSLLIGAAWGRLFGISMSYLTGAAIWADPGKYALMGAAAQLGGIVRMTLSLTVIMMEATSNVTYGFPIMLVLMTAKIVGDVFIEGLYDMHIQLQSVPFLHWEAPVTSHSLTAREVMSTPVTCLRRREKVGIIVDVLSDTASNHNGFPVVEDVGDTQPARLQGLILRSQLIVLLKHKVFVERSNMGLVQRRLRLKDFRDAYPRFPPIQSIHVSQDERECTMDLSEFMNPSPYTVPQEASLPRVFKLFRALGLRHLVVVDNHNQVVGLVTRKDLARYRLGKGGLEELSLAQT
T1 sequence (Q8BGT0 35-338 partner): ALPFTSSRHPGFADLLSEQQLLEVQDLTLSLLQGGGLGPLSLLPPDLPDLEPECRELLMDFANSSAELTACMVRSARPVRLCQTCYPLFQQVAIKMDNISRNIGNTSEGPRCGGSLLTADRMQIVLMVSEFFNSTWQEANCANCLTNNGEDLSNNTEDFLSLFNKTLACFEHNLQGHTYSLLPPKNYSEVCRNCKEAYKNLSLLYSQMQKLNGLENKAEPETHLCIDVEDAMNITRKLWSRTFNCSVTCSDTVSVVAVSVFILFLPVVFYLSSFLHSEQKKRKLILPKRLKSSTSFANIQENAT
Test: SSM-based electrophysiology on lysosomal membrane fraction of CHO cells, […] NaCl jump
Assay type: biochemical

Row | IC50 (read-out: IC50) | Molecule | IC50
1 | 39 ± 3.8 µM | O=S(=O)(O)c1cc(N=C=S)ccc1C=Cc1ccc(N=C=S)cc1S(=O)(=O)O [compound 1, 4,4′-diisothiocyanatostilbene-2,2′-disulfonic acid] | 
2 |  | O=C(O)c1cc([N+](=O)[O-])ccc1NCCCc1ccccc1 [compound 3, 5-nitro-2-(3-phenylpropylamino)benzoic acid] | 156 ± 7.8 µM
3 | 52 ± 8 µM | NS5818 [compound 2] | 
